Laboratory results: US10874670B2, “Substituted fused heteroaromatic compounds as kinase inhibitors and the use thereof” (IMPACT THERAPEUTICS, INC., priority 2017, dated 2020)
Where two headings read alike, the source gives them in different places.

Tests used:
[1] = target: ATM enzyme (human) (Homo sapiens, UniProt Q13315); assay: ATM kinase assay (HTRF, GST-cMyc-p53 substrate); type: biochemical; conditions: for inhibition at 1 µM: C 1 μm (final concentration of compound); for inhibition at 0.01 µM: C 0.01 μm (final concentration of compound); for inhibition at 0.1 µM: C 0.1 μm (final concentration of compound)
Outline: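 Reaction with GST-cMyc-p53 substrate started with Mg/ATP, run 30 minutes at room temperature, then stopped with EDTA. Phospho-p53 (Ser15) detected by HTRF with Eu-labelled anti-phospho antibody and d2 anti-GST, signal as 10000×(Em665/Em620). Duplicates; IC50 from a curve fit with slope factor.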

[2] = tested on: human breast cancer cell MDA-MB-468; assay: MTT assay, growth of MDA-MB-468 cells; type: cell-based; conditions: for IC50: Homo sapiens, MDA-MB-468, 168 h, 7 days, MTT
Protocol: Inhibitory Effects of N,N-dimethyl-3-(4-(1-(tetrahydro-2H-pyran-4-yl)-[1,2,4]triazolo[4,3-a]quinoxalin-8-yl)phenoxy)propan-1-amine and its Analogues on the Growth of Human Breast Cancer Cell MDA-MB-468 were Determined by MTT Assay
MDA-MB-468 cells were digested by trypsinase, centrifuged at 800 rpm for 5 minutes, the supernatant was discarded, resuspended with fresh medium (RPMI 1640 medium+10% FBS) and counted. The cells were seeded into 96-well cell culture plate with appropriate cell density and incubated overnight in a 37° C. 5% CO2 incubator. The stock solutions of the tested compound and the reference compound AZD0156 were serially diluted to 8 concentrations by DMSO at the ratios of 1:3 and 1:10, respectively: the first concentration was 100 μM or 1 μM, and the last concentration was negative control of DMSO (0 μM, the final concentration of DMSO was 1%). 5 μL of each concentration was added to 120 μL of medium (25 times diluted) and mixed by shaking. The overnight cells were taken and the culture medium was removed, 195 μL of fresh medium was added to each well, and 5 μL of diluted medium containing the corresponding concentration of the tested sample was added respectively, and the culture plate was then placed in the 5% CO2 cell culture incubator at 37° C. for 7 days (On the fourth day, the medium containing drugs was removed and fresh medium containing drugs was added for continuous cultivation). After removing the original solution, 100 μL of fresh serum-free DMEM medium containing MTT (0.5 mg/mL) was added to each well, the culture was continued. After 4 hours, the original solution was removed, 100 μL of DMSO was added into each well, the 96-well plates were shaken away from light for 10 minutes and placed in a multi-function reader to read the absorbance at the wavelength of 552/630/690 nm. GraphPad Prism 6.0 was used to analyze the data. The inhibitory activity of compounds on cell proliferation was plotted based on cell viability and compound concentration. The IC50 value was fitted by a sigmoidal dose response curve equation Y=100/(1+10^(Log C−Log IC50)), where C was the concentration of compound.
Table 4 summarizes the inhibitory effects of compounds on the growth of human breast cancer cell MDA-MB-468 (IC50).

[3] = tested on: human colon cancer cell SW620; assay: MTT assay, growth of SW620 cells, compounds combined with CPT-11; type: cell-based; conditions: for IC50: Homo sapiens, SW-620, 120 h, combined with CPT-11 (205 nM medium), 5 days, MTT
Outline: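 SW620 cells in RPMI 1640/10% FBS were exposed to 8-point compound dilutions (top 10 or 1 μM, 1% DMSO final) plus CPT-11 (205 nM in added medium) for 5 days at 37 °C. Viability by MTT (0.5 mg/mL, 4 h) absorbance; IC50 from sigmoidal fit.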

[4] = 0.5 h, read-out: Inh (%) of ATM kinase
[5] = 0.5 h, C 0.001 μm (final concentration of compound), read-out: Inh (%) of ATM kinase

Chain of ATM enzyme (human) (Q13315 whole entry): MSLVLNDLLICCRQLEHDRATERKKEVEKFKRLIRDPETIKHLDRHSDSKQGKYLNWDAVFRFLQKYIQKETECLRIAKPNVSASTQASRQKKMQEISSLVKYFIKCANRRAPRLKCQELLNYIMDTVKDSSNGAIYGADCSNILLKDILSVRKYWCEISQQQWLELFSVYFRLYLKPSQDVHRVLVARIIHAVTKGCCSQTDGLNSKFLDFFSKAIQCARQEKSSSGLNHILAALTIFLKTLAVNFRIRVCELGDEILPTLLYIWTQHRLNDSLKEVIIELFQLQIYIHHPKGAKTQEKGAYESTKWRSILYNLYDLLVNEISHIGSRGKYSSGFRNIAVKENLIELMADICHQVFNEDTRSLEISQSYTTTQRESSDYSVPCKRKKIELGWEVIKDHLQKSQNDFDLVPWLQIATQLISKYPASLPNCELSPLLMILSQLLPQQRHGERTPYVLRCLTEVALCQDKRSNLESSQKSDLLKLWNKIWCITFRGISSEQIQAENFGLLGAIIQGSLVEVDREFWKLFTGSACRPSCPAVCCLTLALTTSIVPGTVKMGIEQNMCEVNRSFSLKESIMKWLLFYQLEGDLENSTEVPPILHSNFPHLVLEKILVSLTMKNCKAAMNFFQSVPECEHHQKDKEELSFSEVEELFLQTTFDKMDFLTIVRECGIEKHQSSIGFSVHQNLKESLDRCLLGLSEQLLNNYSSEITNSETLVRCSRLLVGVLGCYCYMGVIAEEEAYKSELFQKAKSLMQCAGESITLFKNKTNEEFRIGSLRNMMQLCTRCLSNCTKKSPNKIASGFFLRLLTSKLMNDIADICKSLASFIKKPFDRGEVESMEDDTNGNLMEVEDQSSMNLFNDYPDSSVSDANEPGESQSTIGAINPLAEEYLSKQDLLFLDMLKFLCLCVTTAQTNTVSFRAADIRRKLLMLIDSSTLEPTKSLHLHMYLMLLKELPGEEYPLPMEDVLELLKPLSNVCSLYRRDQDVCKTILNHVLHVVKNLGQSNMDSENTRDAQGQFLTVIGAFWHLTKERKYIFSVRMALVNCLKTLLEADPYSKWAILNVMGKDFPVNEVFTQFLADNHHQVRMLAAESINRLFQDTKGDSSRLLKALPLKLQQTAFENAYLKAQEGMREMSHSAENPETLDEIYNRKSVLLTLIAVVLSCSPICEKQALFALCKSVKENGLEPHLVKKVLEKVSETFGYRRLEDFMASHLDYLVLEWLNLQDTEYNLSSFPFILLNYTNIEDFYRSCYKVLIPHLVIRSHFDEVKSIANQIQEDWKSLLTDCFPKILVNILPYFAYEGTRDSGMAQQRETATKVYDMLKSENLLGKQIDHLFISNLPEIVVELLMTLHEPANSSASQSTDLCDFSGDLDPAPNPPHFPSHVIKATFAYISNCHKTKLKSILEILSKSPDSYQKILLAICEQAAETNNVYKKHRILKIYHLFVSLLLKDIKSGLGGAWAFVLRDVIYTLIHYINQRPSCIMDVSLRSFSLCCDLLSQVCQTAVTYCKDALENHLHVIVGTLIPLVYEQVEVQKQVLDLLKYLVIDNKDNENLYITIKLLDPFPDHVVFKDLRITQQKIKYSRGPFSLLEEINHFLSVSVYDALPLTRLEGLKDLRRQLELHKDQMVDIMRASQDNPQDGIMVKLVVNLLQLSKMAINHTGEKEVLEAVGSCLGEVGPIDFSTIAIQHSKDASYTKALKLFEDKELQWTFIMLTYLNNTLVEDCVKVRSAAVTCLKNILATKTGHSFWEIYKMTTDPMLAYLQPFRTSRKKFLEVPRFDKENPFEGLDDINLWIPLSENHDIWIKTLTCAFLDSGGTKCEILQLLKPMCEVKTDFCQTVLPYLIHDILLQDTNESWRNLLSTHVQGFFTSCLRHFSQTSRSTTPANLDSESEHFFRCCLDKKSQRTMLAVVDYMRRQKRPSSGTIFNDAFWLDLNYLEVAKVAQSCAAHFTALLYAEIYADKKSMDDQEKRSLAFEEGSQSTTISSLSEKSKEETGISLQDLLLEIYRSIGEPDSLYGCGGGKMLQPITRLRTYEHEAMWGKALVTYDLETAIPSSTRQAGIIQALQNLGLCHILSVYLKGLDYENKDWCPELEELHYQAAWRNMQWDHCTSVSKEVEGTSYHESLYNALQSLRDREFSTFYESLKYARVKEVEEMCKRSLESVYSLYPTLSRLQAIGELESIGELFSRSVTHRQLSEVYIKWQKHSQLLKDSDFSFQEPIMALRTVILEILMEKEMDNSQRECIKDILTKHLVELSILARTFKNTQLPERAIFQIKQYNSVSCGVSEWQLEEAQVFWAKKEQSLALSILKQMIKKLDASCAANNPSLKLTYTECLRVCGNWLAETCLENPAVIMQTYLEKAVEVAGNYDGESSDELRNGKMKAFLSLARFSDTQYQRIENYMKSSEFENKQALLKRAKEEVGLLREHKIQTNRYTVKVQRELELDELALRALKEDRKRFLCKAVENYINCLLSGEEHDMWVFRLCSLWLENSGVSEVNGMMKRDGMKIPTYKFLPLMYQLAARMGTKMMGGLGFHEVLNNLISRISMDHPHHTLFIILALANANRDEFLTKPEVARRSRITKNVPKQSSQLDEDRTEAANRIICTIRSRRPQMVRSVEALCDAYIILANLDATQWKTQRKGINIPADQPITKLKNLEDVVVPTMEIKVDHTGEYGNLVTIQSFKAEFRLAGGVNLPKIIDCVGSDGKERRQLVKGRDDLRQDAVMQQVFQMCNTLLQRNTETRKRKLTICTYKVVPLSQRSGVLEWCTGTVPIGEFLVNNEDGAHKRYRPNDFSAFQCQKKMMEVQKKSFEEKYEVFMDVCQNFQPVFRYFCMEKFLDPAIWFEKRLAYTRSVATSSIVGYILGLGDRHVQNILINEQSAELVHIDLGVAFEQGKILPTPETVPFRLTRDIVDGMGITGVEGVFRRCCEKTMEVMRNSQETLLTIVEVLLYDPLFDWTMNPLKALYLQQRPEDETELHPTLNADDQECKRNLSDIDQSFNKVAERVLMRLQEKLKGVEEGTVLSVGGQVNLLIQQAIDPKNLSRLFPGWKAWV

Compound | inhibition at 1 µM [1, 4] | IC50 [2] | IC50 [3] | inhibition at 0.01 µM [1, 4] | inhibition at 0.1 µM [1, 4] | inhibition at 0.001 µM [1, 5] | inhibition at 0.001 µM ([1]; at 1 nM, read-out: inhibitory effect on ATM kinase) | inhibitory effect on the growth of MDA-MB-468 cells (in words) ([2]; MTT assay) | inhibitory effect on the growth of SW620 cells (in words) ([3]; MTT assay, combined with CPT-11)
CN(C)CCCOc1ccc(-c2ccc3ncc4cnc(C5CCOCC5)n4c3c2)cc1 [Example 37, N,N-dimethyl-3-(4-(1-(tetrahydro-2H-pyran-4-yl)imidazo[1,5-a]quinoxalin-8-yl)phenoxy)propan-1-amine] | 18% | 4710 nM | 4250 nM |  |  |  |  |  | 
CN(C)C1CCN(c2ccc(-c3ccc4ncc5nnc(C6CCOCC6)n5c4c3)cc2F)CC1 [Example 44, 1-(2-fluoro-4-(1-(tetrahydro-2H-pyran-4-yl)-[1,2,4]triazolo[4,3-a]quinoxalin-8-yl)phenyl)-N,N-dimethylpiperidin-4-amine] | 100% | 183 nM | 152 nM | 67% | 94% |  |  |  | 
CN(C)C1CCN(c2ccc(-c3ccc4ncc5nnc(C6CCOCC6)n5c4c3)cc2Cl)CC1 [Example 45, 1-(2-chloro-4-(1-(tetrahydro-2H-pyran-4-yl)-[1,2,4]triazolo[4,3-a]quinoxalin-8-yl)phenyl)-N,N-dimethylpiperidin-4-amine] | 100% | 106 nM | 170 nM | 67% | 94% |  |  |  | 
Cc1cc(-c2ccc3ncc4nnc(C5CCOCC5)n4c3c2)ccc1N1CCC(N(C)C)CC1 [Example 46, N,N-dimethyl-1-(2-methyl-4-(1-(tetrahydro-2H-pyran-4-yl)-[1,2,4]triazolo[4,3-a]quinoxalin-8-yl)phenyl)piperidin-4-amine] | 100% | 930 nM | 612 nM |  |  |  |  |  | 
CN(C)C1CCN(c2ccc(-c3ccc4ncc5nnc(C6CCOCC6)n5c4c3)cc2C(F)(F)F)CC1 [Example 47, N,N-dimethyl-1-(4-(1-(tetrahydro-2H-pyran-4-yl)-[1,2,4]triazolo[4,3-a]quinoxalin-8-yl)-2-(trifluoromethyl)phenyl)piperidin-4-amine] | 100% | 145 nM | 128 nM | 72% | 96% |  |  |  | 
CN(C)C1CCN(c2ccc(-c3ccc4ncc5nnc(C6CCOCC6)n5c4c3)c(F)c2)CC1 [Example 48, 1-(3-fluoro-4-(1-(tetrahydro-2H-pyran-4-yl)-[1,2,4]triazolo[4,3-a]quinoxalin-8-yl)phenyl)-N,N-dimethylpiperidin-4-amine] | 100% | 161 nM | 184 nM | 62% | 93% |  |  |  | 
CN(C)C1CCN(c2ccc(-c3ccc4ncc5nnc(C6CCOCC6)n5c4c3)c(Cl)c2)CC1 [Example 49, 1-(3-chloro-4-(1-(tetrahydro-2H-pyran-4-yl)-[1,2,4]triazolo[4,3-a]quinoxalin-8-yl)phenyl)-N,N-dimethylpiperidin-4-amine] | 100% | 1580 nM | 1030 nM |  |  |  |  |  | 
Cc1cc(N2CCC(N(C)C)CC2)ccc1-c1ccc2ncc3nnc(C4CCOCC4)n3c2c1 [Example 50, N,N-dimethyl-1-(3-methyl-4-(1-(tetrahydro-2H-pyran-4-yl)-[1,2,4]triazolo[4,3-a]quinoxalin-8-yl)phenyl)piperidin-4-amine] | 80% | > 100000 nM | > 10000 nM |  |  |  |  |  | 
CN(C)C1CCN(c2ccc(-c3ccc4ncc5nnc(C6CCOCC6)n5c4c3)c(C(F)(F)F)c2)CC1 [Example 51, N,N-dimethyl-1-(4-(1-(tetrahydro-2H-pyran-4-yl)-[1,2,4]triazolo[4,3-a]quinoxalin-8-yl)-3-(trifluoromethyl)phenyl)piperidin-4-amine] | 74% | 3680 nM | > 10000 nM |  |  |  |  |  | 
CN(C)C1CCN(c2ccc(-c3ccc4ncc5nnc(C6CCOCC6)n5c4c3)nc2)CC1 [Example 52, N,N-dimethyl-1-(6-(1-(tetrahydro-2H-pyran-4-yl)-[1,2,4]triazolo[4,3-a]quinoxalin-8-yl)pyridin-3-yl)piperidin-4-amine] | 98% | 523 nM | > 10000 nM |  |  |  |  |  | 
CN(C)CC1CCN(c2ccc(-c3ccc4ncc5nnc(C6CCOCC6)n5c4c3)cc2)CC1 [Example 53, N,N-dimethyl-1-(1-(4-(1-(tetrahydro-2H-pyran-4-yl)-[1,2,4]triazolo[4,3-a]quinoxalin-8-yl)phenyl)piperidin-4-yl)methanamine] | 77% | > 100000 nM | > 100000 nM |  |  |  |  |  | 
CN(C)CCC1CCN(c2ccc(-c3ccc4ncc5nnc(C6CCOCC6)n5c4c3)cc2)CC1 [Example 54, N,N-dimethyl-2-(1-(4-(1-(tetrahydro-2H-pyran-4-yl)-[1,2,4]triazolo[4,3-a]quinoxalin-8-yl)phenyl)piperidin-4-yl)ethan-1-amine] | 82% | > 100000 nM | > 100000 nM |  |  |  |  |  | 
C[C@@H]1CN(c2nnc3cnc4ccc(-c5ccc(OCCCN(C)C)c(C(F)(F)F)c5)cc4n23)C[C@H](C)N1C [Example 57, N,N-dimethyl-3-(2-(trifluoromethyl)-4-(1-((3S,5R)-3,4,5-trimethylpiperazin-1-yl)-[1,2,4]triazolo[4,3-a]quinoxalin-8-yl)phenoxy)propan-1-amine] | 100% | 15 nM | 11.8 nM | 98% | 100% | 60% | > 50% | comparable to AZD0156 | comparable to AZD0156
C[C@@H]1CN(c2nnc3cnc4ccc(-c5ccc(N6CCC(N(C)C)CC6)cc5)cc4n23)C[C@H](C)N1C [Example 58, N,N-dimethyl-1-(4-(1-((3S,5R)-3,4,5-trimethylpiperazin-1-yl)-[1,2,4]triazolo[4,3-a]quinoxalin-8-yl)phenyl)piperidin-4-amine] | 100% | 68.8 nM | 47.5 nM | 89% | 100% | 38% |  |  | 
CN(C)C1CCN(c2ccc(-c3ccc4ncc5nnc(N6CCC(N(C)C)CC6)n5c4c3)cc2)CC1 [Example 64, 1-(4-(1-(4-(dimethylamino)piperidin-1-yl)-[1,2,4]triazolo[4,3-a]quinoxalin-8-yl)phenyl)-N,N-dimethylpiperidin-4-amine] | 98% | > 10000 nM | > 10000 nM |  |  |  |  |  | 
CNC1CCN(c2ccc(-c3ccc4ncc5nnc(CN6CCOCC6)n5c4c3)cc2)CC1 [Example 66, N-methyl-1-(4-(1-(morpholinomethyl)-[1,2,4]triazolo[4,3-a]quinoxalin-8-yl)phenyl)piperidin-4-amine] | 100% | 430 nM | 589 nM |  |  |  |  |  | 
c1ccc(-c2cc3c(cn2)ncc2nnc(C4CCOCC4)n23)cc1 [Example 67, 8-phenyl-1-(tetrahydro-2H-pyran-4-yl)pyrido[3,4-e][1,2,4]triazolo[4,3-a]pyrazine] | 19% | > 100000 nM | > 100000 nM |  |  |  |  |  | 
CN(C)Cc1ccc(-c2cc3c(cn2)ncc2nnc(C4CCOCC4)n23)cc1 [Example 68, N,N-dimethyl-1-(4-(1-(tetrahydro-2H-pyran-4-yl)pyrido[3,4-e][1,2,4]triazolo[4,3-a]pyrazin-8-yl)phenyl)methanamine] | 0% | > 100000 nM | > 100000 nM |  |  |  |  |  | 
CNC1CCN(c2ccc(-c3cc4c(cn3)ncc3nnc(C5CCOCC5)n34)cc2)CC1 [Example 70, N-methyl-1-(4-(1-(tetrahydropyran-4-yl)pyrido[3,4-e][1,2,4]triazolo[4,3-a]pyrazin-8-yl)phenyl)piperidin-4-amine] | 4% | > 100000 nM | > 10000 nM |  |  |  |  |  | 
